# Assays:
# bvFTD patients [1] = assay: Lateral ventricular volume (LVV) change by MRI; format: in vivo, human; conditions: Patients receiving 8 mg/day, vs Cmax,ss ≤[…], 52 weeks
# Description: (§1) The two doses were provided in identical blister packages as visually identical oral tablets to be taken for up to 52 weeks. The primary outcome was the Addenbrookes Cognitive Examination – Revised (ACE-R). The Functional Activities Questionnaire (FAQ) and reduction in progression of whole brain atrophy were alternative co-primary outcomes. Other outcomes included: Modified Alzheimer’s Disease Cooperative Study – Clinical Global Impression of Change (Modified-CGIC) determined by a third independent rater; Frontotemporal Dementia Rating Scale (FRS); MMSE (from MMSE items incorporated into ACE-R); Addenbrookes Cognitive Examination – III (a revised version of ACE-R which excludes MMSE items subject to copyright restrictions); change in brain volume measured by MRI in frontal and temporal lobes (FTV) and lateral ventricles (LVV); and the effect of hydromethylthionine in patients with known genetic mutations associated with bvFTD. Blood was collected prospectively for the purpose of population PK analyses.
# MRI scans were obtained at screening and weeks 16, 32, and 52. The acquisition protocol was standardized across sites and all data were centrally collected, quality-controlled, and analyzed by the imaging core laboratory (Bioclinica). MRI data included a 3D sagittal T1-weighted sequence (using parameters compatible with the ADNI protocol) which was used for all volumetric analyses. […]
# bvFTD patients [2] = assay: Addenbrookes Cognitive Examination – III (ACE-III), 52-week Phase III trial; format: in vivo, human
# Description: as §1
# The primary analyses were specified as a mixed model, repeated-measures analysis with an unstructured covariance matrix and no imputation for missing data. […]
compound,measurement,setting,value
"CN(C)c1ccc2c(c1)Sc1cc(N(C)C)ccc1N2 [hydromethylthionine, leuco-methylthioninium bis(hydromethanesulphonate)]","LVV: Difference±SEM for Cmax,ss > […]",bvFTD patients [1],–4.12±1.06 cm^3
same,ACE-III: Decline±SEM for LMTM 8 mg/day group,"bvFTD patients [2]; 8 mg/day (n = 110), modeled change from baseline at 52 weeks",–10.70±1.55
same,ACE-III: Difference±SEM from LMTM 8 mg/day for 200 mg/day,"bvFTD patients [2]; 200 mg/day (n = 104) vs 8 mg/day, 52 weeks",0.44±2.27

# Source: PMC7306898, “Concentration-Dependent Activity of Hydromethylthionine on Clinical Decline and Brain Atrophy in a Randomized Controlled Trial in Behavioral Variant Frontotemporal Dementia” (Journal of Alzheimer's Disease, 2020)
